# Experiments:
# NMDA receptor [1] = test: Survival of CBE-treated mice given NMDA receptor agonists or antagonists; type: in vivo, mouse
# Text: (§1) Mice—Pure inbred mouse strains were obtained from the Jackson laboratories (USA), Harlan UK and Harlan Israel. Specifically, BTBR T^+ Itpr3^tf/J C3H/HeJ, DBA/2J, MRL/MpJ, WSB/EiJ, MOLF/Ei, PWD/PhJ, KK/HiJ, BPL/1J, I/LnJ, BPN/3J, and LP/J were obtained from Jackson; A/J, AKR/J, NZW/LacJ, 129S1/SvImJ were obtained from Harlan laboratories in the UK; and C57BL/6JOlaHsd, BALB/cJ and FVB/NJ were obtained from the Harlan laboratories in Israel. Gba^flox/flox; nestin-Cre mice, a mouse model of GD were generated as described in Vitner et al. Nature Medicine (2014) 20: 204-208; and Enquist, I. B. et al. Proc. Natl. Acad. Sci. USA (2007) 104: 17483-17488. These mice recapitulate many features of human nGD, although their Gba1 deficiency is restricted to neural and macroglial lineages. Mice were maintained under specific pathogen-free conditions and handled according to protocols approved by the Weizmann Institute Animal Care Committee according to international guidelines.
# CBE injections—Conduritol-β-epoxide (CBE) was obtained from Calbiochem Millipore (Darmstadt, Germany). CBE at a dose of 25 mg or 50 mg per kg body weight per day or PBS (control) were administered i.p. to mice daily starting from postnatal day 8 (P8) of age.
# (§2) Treatment with NMDA receptor agonists and antagonists—All agonists and antagonists were administered daily from P8. D-cycloserine (Sigma) was administered daily at a dose of 200 mg/kg/day. MK-801 (Sigma) was administered daily at a dose of 0.3 mg/Kg/day. Memantine (Sigma) was administered daily at a dose of 3 or 30 mg/Kg/day. Ifenprodil (Sigma) was administered daily at a dose of 9 mg/Kg/day.
# GBA1 = molecular target: T1, GBA1 (Mus musculus, UniProt P17439); test: GBA1 activity assay in brain homogenates of treated mice; type: in vivo; details: A/J mice, CBE plus memantine
# T1 construct: from tissue; host or cells: mouse brain (frozen half-brain homogenate) of inbred strains treated in vivo with PBS, CBE or CBE plus memantine
# T1 sequence (P17439 20-515): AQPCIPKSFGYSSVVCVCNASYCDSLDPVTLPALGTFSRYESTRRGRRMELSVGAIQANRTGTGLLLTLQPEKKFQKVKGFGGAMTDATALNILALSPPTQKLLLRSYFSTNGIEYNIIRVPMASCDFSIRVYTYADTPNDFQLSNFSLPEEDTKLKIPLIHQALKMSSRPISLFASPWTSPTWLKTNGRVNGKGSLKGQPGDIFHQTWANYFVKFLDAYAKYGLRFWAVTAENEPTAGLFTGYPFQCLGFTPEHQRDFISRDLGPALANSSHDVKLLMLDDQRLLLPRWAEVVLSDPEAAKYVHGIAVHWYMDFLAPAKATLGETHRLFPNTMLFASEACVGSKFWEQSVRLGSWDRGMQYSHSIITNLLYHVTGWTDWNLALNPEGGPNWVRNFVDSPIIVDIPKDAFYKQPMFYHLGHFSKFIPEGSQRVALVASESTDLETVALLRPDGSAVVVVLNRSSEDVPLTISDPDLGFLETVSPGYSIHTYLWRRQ
# Procedure: GBA1 activity assay—GBA1 activity was performed as previously described (Farfel-Becker et al. Hum Mol Genet. 2014; 23(4):843-54). Briefly, frozen half-brain samples were sonicated in Mcllvaine's buffer (0.1 M citric acid, pH 4.2, 0.2 M Na2HPO4, 29:21, vol:vol). Tissue homogenates containing 50 μg of protein were incubated at 37° C. with 8 μM C6-NBD-GlcCer (Avanti Polar Lipids, Alabaster, Ala., USA) in a final volume of 25 μl Mcllvaine's buffer for 30 minutes. Lipids were extracted and the lower phase separated by thin layer chromatography using chloroform:methanol:9.8 mM CaCl2 (60:35:8, vol:vol:vol) as the developing solvent. C6-NBD-ceramide was identified with an authentic standard using a Typhoon 9410 variable mode imager and bands were quantified by Image-QuantTL (GE Healthcare, Chalfont St Giles, UK).
# To eliminate the possibility that the phenotypic differences observed in the different mouse strains were caused by differential CBE metabolism in the brain, GBA1 enzymatic activity in mice treated for 10 days with CBE or PBS (control) was measured. […] Overall, the remaining GBA1 activity was 5-10% of the controls (FIG. 3A). There was no correlation between GBA1 activity in the brain and life spans neither in the PBS(R^2=0.126, data not shown) nor CBE conditions (R^2=0.0581, FIG. 3B). In addition, no correlation was found between inhibition of GBA1 activity and life span when evaluated according to strains (R^2=0.0085, data not shown).
# [2] = tested on: motor coordination of CBE-treated mice; test: Locomotor testing by the hanging wire test; type: in vivo, mouse
# Text: Locomotor testing—Locomotor coordination was weekly evaluated in the treated strains by the hanging wire test, a validated test for LSD mouse models (Alvarez et al. 2008). Briefly, the mouse was placed with forepaws at a center of a horizontal bar (3 mm diameter; 35 mm long).
# To further characterize the effect of CBE treatment on the different strains, motor behavior was followed weekly using the hanging wire test, starting at postnatal day 21 for a period of 2 months. The hanging wire test evaluates coordination and locomotor function, wherein a high score means better coordination. […] Of note, strains PWD/PhJ and WSB/EiJ were excluded in the motor behavior analysis due to their wild behavior.
# NMDA receptor [3] = test: Survival of Gba flox/flox; nestin-Cre mice (genetic nGD model) treated with memantine; type: in vivo, mouse; details: memantine 3 or 30 mg/kg day from P8 vs PBS
# Text: as §1, §2
structure (smiles),measurement,setting,value
C[C@]12N[C@H](Cc3ccccc31)c1ccccc12 [MK-801],survival,"NMDA receptor [1]; MK-801 0.3 mg/Kg/day, CBE-treated (25 mg/Kg/day) C3H mice, daily from P8",extended the survival
"CC(C(O)c1ccc(O)cc1)N1CCC(Cc2ccccc2)CC1.O=C(O)C(O)C(O)C(=O)O (stereo not drawn) [Ifenprodil, α-(4-Hydroxyphenyl)-β-methyl-4-benzyl-1-piperidineethanol (+)-tartrate salt]",life spans,"NMDA receptor [1]; Ifenprodil 9 mg/Kg/day, CBE (25 mg/kg day)-treated A/J mice, daily from P8",showed increments in the life spans
N[C@@H]1CONC1=O [D-cycloserine],life spans,"NMDA receptor [1]; D-cycloserine 200 mg/kg/day, CBE-treated (25 mg/kg day) long living strains BALB/cJ, FVB/NJ, 129S1/SvImJ, BTBR T+ Itpr3tf/J, daily from P8",reduced the life spans
"CC12CC3CC(C)(C1)CC(N)(C3)C2.Cl [Memantine, 3,5-Dimethyl-1-adamantanamine hydrochloride]",interference with GBA1 inhibition in the brain,GBA1; brains harvested P18 or P70,did not interfere with GBA1 inhibition
same,cerebral GBA1 activity,GBA1; postnatal day 70 (P70),almost undetectable
same,progression of the motor dysfunction induced by CBE (hanging wire test),"[2]; A/J mice, CBE plus memantine",delayed the progression of the motor dysfunction
same,hanging wire test score,[2]; memantine-treated CBE mice at postnatal day 49,the same score as CBE-treated mice at P21
same,life span,"NMDA receptor [1]; memantine 3 mg/kg day plus CBE 25 mg/kg day, A/J, C3H/HeJ, DBA/2J and C57BL6/JolaHsd mice, daily from P8",significantly extended the life span
same,survival,"NMDA receptor [1]; memantine 30 mg/kg/day, CBE 50 mg/kg/day, AJ mice, daily from P8",significantly extended survival
same,increase of life span compared with MK-801,NMDA receptor [1]; neuropathic GD (CBE-treated) mice,to a greater extent than MK-801
same,survival,NMDA receptor [3],significantly extended survival

# From patent publication US20170273917A1, “NMDA RECEPTOR ANTAGONISTS FOR TREATING GAUCHER DISEASE” (Yeda Research and Development Co. Ltd., priority 2014, published 2017)
